The values that follow come from ChEMBL document CHEMBL1201862, “PubChem BioAssay data set” (2004).

Test [1] addresses DNA dC->dU-editing enzyme APOBEC-3G (Homo sapiens, UniProt Q9HC16). Put plainly: Dose Response confirmation of small molecule APOBEC3G DNA Deaminase Inhibitors via a fluorescence-based single-stranded DNA deaminase assay. [Related pubchem assays (depositor defined):AID493012, AID493028]. In kind it is functional.
The target in a further test is Phosphomannomutase 2 (Homo sapiens, UniProt O15305). The test can be described thus: Counter screen SAR assay for PMM2 inhibitors via a fluorescence intensity assay. [Related pubchem assays (depositor defined):AID1545, AID1574].
Test [2] has as its target Glucose-6-phosphate 1-dehydrogenase (Homo sapiens, UniProt P11413). The test can be described thus: human G6PD enzyme inhibitors, dose response, selectivity assay for P. falciparum G6PD inhibitor project, biochemical, fluorescence (AID 504792). It is filed as functional.
In a further test the test system is T-cell. The test can be described thus: inhibitors of CD8+ T cell–vesicle binding, dose response, mouse 2C CD8+ T cells, flow cytometry (AID 485284). It is filed as functional.
Test [3] concerns the target Phosphoethanolamine/phosphocholine phosphatase (Homo sapiens, UniProt Q8TCT1). Put plainly: SAR assay for compounds that inhibit PHOSPHO1. [Related pubchem assays (depositor defined):AID1545, AID1565, AID1574].
Test [4] concerns the target T1, Rac GTPase-activating protein 1 (Homo sapiens, UniProt Q9H0H5).
T1 sequence (Q9H0H5 whole entry): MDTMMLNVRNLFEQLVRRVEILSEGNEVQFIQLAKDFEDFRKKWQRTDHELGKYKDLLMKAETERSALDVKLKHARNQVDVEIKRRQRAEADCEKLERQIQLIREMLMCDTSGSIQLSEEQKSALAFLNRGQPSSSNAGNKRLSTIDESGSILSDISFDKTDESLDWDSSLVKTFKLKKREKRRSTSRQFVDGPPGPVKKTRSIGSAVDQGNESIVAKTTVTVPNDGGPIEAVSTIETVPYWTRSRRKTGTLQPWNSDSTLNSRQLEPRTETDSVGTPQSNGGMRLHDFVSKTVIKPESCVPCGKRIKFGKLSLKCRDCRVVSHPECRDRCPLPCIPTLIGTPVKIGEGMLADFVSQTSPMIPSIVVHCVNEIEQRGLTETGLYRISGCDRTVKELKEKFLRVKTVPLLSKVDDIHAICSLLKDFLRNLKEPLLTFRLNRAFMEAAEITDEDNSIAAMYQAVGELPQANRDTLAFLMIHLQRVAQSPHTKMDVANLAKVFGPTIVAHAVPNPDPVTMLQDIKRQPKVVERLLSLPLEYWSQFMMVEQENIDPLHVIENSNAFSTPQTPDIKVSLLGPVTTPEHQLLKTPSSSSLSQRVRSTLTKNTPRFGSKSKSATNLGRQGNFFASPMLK
Put plainly: MgcRacGAP GTPase-activating activity inhibitors, confirmation, biochemical, ADP Hunter fluorescence, primary and confirmatory (AID 624330). It is filed as functional.

In test [5] the target is T2, Alkaline phosphatase, tissue-nonspecific isozyme (Homo sapiens, UniProt P05186).
T2 sequence (P05186 whole entry): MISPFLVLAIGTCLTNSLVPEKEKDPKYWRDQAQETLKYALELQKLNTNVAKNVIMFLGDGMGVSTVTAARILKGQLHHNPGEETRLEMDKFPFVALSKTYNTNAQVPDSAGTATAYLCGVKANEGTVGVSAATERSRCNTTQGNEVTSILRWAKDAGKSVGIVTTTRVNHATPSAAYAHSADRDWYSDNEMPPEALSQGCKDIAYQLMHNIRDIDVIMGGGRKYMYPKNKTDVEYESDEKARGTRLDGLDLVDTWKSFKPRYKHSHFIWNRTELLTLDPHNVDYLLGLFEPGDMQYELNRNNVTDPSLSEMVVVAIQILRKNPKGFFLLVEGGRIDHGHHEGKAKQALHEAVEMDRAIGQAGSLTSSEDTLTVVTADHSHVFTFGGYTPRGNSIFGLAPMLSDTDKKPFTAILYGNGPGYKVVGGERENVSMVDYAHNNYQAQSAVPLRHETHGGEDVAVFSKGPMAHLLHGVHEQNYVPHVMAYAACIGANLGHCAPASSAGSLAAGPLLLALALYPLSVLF
The test can be described thus: human TNAP enzyme inhibitors, SAR follow-up, biochemical, luminescent, dose response (AID 1056).

A short description of test [6]: HeLa cell cytotoxicity, dose response, cytotoxicity control for MgcRacGAP inhibitor project (AID 624300). It is filed as functional.
Test [7] concerns the target DNA dC->dU-editing enzyme APOBEC-3A (Homo sapiens, UniProt P31941). Put plainly: APOBEC3A DNA deaminase inhibitors, dose response, biochemical (AID 504722). In kind it is functional.
The target in test [8] is T3, Delta-type opioid receptor (Homo sapiens, UniProt P41143). Put plainly: DOR antagonists, SAR follow-up, image-based (AID 2357). It is filed as functional.
The target of test [9] is T4, Mu-type opioid receptor (Homo sapiens, UniProt P35372). Put plainly: MOR agonists by imaging, SAR follow-up, image-based (AID 2352). In kind it is functional.
Test [10] has as its target T4, Mu-type opioid receptor. Put plainly: MOR antagonists, SAR follow-up, image-based (AID 2420).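 Note: compounds added before stimulation of receptor with agonist DAMGO.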 In kind it is functional.
Test [11] concerns the target T5, Kappa-type opioid receptor (Homo sapiens, UniProt P41145). Put plainly: kappa opioid receptor blockers, cell-based, luminescence, beta-arrestin, SAR follow-up (AID 2285). It is filed as functional.
Test [12] has as its target T5, Kappa-type opioid receptor. Put plainly: KOR antagonists by imaging, SAR follow-up, image-based (AID 2348). It is filed as functional.
The target in test [13] is T5, Kappa-type opioid receptor. The test can be described thus: KOR agonist analogs, imaging readout, SAR follow-up, image-based (AID 2359). In kind it is functional.
Test [14] addresses T3, Delta-type opioid receptor. Put plainly: DOR agonists, SAR follow-up, image-based (AID 2370). It is filed as functional.
Test [15] can be described thus: inhibitors of firefly luciferase expression or activity, dose response, H4 neuroglioma cells, luminescence (AID 1990). In kind it is functional, cell-based.
Test [16] is described as follows: inhibitors of SNCA 5'UTR-driven reporter translation, confirmation, H4 neuroglioma cells, luminescence (AID 1988). In kind it is functional, cell-based.
Test [17] concerns the target Type-1 angiotensin II receptor (Homo sapiens, UniProt P30556). The test can be described thus: AT1 receptor agonists, dose response, selectivity assay for APJ receptor agonist project, cell-based, uHTS hits (AID 488865).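 Note: beta-arrestin recruitment to AT1 measured by enzyme fragment complementation luminescence.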 In kind it is functional.
A short description of test [18]: Luminescence Cell-Based Dose Response HTS to Identify Inhibitors of 5'UTR Stem-Loop Driven Prion Protein mRNA Translation in H4 Neuroglioblastoma Cells. [Related pubchem assays: 1827 (Project Summary), 1813 (Primary HTS)]. In kind it is functional.
Test [19] has as its target T6, Cannabinoid receptor 1 (Homo sapiens, UniProt P21554). The test can be described thus: SAR analysis of antagonists of the Cannabinoid Receptor 1 using an Image-Based Assay - Set 2. [Related pubchem assays (depositor defined):AID2013, AID2026]. In kind it is functional.
The target of test [20] is T7, G-protein coupled receptor 55 (Homo sapiens, UniProt Q9Y2T6). The test can be described thus: GPR55 antagonist potency of analogs, SAR follow-up, imaging, U2OS, beta-arrestin-GFP, LPI agonist, set 2 (AID 2820). In kind it is functional.
The target of test [21] is T8, G-protein coupled receptor 35 (Homo sapiens, UniProt Q9HC97). The test can be described thus: SAR analysis of Antagonists of the GPR35 Receptor using an Image-Based Assay - Set 3. [Related pubchem assays (depositor defined):AID2013, AID2026]. It is filed as functional.
Test [22] addresses T9, Cannabinoid receptor 2 (Homo sapiens, UniProt P34972). Put plainly: SAR analysis of agonists of the Cannabinoid Receptor 2 using an Image-Based Assay. [Related pubchem assays (depositor defined):AID2013, AID2026]. It is filed as functional.
Test [23] concerns the target T6, Cannabinoid receptor 1. The test can be described thus: SAR analysis of agonists of the Cannabinoid Receptor 1 using an Image-Based Assay - Set 2. [Related pubchem assays (depositor defined):AID2013, AID2026]. It is filed as functional.
Test [24] deals with T9, Cannabinoid receptor 2. The test can be described thus: SAR analysis of antagonists of the Cannabinoid Receptor 2 using an Image-Based Assay. [Related pubchem assays (depositor defined):AID2013, AID2026]. It is filed as functional.
In test [25] the target is T8, G-protein coupled receptor 35. The test can be described thus: SAR analysis of Agonists of the GPR35 Receptor using an Image-Based Assay - Set 2. [Related pubchem assays (depositor defined):AID2013, AID2026]. In kind it is functional.
In test [26] the target is T7, G-protein coupled receptor 55. Put plainly: GPR55 antagonists blocking LPI-driven arrestin recruitment, primary screen, imaging, U2OS, beta-arrestin-GFP, LPI agonist (AID 2013).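 Note: antagonist potency measured as reduced agonist-driven arrestin aggregation.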 In kind it is functional.
A short description of test [27]: Luminescence Cell-Based Dose Retest to Confirm Inhibitors of Cancer Stem Cells. [Related pubchem assays (depositor defined):AID2717, AID2721]. The note with it: Homo sapiens. In kind it is functional.
A further test deals with X-box-binding protein 1 (Homo sapiens, UniProt P17861). It is filed as functional, Cricetulus griseus.
For test [28], the target named is DNA damage-inducible transcript 3 protein (Mus musculus, UniProt P35639). In kind it is functional, Cricetulus griseus.

Active and inactive are the calls of the source.
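Throughout, for AC50: cells exposed to compound for roughly 70 hours or longer before luminescence read.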
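Throughout, for Absolute IC50 (XBP1): confirmatory dose-response counter-screen serving a CHOP assay.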

T5 sequence (P41145 whole entry): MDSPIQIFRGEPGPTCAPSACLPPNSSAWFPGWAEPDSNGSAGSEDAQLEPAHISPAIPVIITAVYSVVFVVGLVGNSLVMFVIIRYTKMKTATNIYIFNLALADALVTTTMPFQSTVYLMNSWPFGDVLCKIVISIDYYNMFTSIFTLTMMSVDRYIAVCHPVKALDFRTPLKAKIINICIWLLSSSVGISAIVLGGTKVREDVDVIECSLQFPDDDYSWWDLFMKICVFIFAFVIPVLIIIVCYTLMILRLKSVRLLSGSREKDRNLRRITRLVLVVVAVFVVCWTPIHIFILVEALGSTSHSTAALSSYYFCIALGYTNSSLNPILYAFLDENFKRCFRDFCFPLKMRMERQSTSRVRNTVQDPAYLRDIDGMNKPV
T8 sequence (Q9HC97 whole entry): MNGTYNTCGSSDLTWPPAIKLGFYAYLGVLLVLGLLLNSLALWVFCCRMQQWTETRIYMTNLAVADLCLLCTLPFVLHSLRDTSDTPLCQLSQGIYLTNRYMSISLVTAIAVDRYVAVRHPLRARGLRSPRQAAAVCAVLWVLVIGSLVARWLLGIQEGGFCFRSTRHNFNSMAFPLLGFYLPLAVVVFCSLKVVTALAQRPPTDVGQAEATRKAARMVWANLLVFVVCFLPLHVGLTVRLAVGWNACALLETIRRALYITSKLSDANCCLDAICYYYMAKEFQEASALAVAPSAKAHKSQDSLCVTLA
T3 sequence (P41143 whole entry): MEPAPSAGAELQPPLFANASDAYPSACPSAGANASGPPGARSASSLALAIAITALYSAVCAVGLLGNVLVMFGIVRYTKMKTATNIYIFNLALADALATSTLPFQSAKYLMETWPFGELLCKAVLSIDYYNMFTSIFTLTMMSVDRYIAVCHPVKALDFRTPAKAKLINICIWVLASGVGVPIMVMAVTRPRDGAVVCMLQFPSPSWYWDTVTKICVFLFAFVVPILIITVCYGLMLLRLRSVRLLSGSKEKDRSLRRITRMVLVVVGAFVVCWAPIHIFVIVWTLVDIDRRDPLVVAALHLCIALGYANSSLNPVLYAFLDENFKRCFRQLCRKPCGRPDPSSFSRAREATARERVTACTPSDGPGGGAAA
T6 sequence (P21554 whole entry): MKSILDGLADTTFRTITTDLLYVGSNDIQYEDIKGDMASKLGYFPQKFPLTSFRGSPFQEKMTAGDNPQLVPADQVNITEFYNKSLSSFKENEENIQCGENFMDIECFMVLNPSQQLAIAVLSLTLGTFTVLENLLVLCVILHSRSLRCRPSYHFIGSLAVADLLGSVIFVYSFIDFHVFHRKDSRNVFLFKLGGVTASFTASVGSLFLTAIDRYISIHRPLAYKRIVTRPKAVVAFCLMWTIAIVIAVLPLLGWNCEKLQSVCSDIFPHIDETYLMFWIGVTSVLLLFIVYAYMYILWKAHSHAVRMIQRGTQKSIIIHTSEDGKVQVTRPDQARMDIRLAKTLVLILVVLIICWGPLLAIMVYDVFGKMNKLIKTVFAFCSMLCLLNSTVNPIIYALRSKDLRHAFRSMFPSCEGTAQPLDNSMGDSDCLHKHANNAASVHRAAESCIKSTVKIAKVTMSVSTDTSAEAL
T9 sequence (P34972 whole entry): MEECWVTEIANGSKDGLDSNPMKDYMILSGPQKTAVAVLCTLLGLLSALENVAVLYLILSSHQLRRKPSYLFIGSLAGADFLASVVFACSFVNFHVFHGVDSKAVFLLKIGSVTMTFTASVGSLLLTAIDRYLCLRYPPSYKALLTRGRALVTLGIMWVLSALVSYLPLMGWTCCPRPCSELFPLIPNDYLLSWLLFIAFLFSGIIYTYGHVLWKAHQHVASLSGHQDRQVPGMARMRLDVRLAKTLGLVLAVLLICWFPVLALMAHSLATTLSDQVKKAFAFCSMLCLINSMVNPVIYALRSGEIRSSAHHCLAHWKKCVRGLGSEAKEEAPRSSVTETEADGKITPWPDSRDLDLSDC
T7 sequence (Q9Y2T6 whole entry): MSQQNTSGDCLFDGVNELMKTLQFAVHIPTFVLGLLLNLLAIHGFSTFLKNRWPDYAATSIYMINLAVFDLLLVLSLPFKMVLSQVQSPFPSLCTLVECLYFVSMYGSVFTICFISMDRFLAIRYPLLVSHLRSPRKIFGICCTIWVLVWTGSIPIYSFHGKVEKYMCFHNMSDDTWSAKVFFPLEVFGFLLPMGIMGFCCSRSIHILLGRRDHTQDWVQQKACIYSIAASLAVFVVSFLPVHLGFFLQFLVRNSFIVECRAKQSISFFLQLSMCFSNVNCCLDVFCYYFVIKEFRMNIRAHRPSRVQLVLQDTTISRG
T4 sequence (P35372 whole entry): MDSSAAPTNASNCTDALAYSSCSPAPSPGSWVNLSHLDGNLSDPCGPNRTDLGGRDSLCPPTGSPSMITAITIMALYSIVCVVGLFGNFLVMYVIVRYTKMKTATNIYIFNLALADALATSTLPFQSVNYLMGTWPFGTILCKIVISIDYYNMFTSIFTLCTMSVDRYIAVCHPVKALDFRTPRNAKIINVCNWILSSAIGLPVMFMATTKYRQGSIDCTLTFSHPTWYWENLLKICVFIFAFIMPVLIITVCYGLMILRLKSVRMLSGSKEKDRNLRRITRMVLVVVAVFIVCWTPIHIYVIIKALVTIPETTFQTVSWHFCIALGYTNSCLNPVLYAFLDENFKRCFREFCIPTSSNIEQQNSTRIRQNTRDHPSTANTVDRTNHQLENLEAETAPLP
Chain of Phosphomannomutase 2 (O15305 whole entry): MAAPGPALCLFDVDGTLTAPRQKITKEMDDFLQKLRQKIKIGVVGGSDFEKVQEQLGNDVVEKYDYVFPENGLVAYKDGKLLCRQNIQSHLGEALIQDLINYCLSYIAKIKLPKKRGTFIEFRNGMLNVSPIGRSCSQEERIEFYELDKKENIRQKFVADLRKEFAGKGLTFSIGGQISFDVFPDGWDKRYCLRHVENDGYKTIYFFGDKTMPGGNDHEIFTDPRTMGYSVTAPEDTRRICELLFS
Chain of X-box-binding protein 1 (P17861 whole entry): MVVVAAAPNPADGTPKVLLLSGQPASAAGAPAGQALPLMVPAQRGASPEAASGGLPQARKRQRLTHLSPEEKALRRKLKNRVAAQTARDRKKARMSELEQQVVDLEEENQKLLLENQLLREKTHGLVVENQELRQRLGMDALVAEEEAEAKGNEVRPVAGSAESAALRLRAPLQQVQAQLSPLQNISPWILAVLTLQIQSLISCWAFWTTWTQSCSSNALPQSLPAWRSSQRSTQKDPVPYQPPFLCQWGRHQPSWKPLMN
Chain of Type-1 angiotensin II receptor (P30556 whole entry, the tested form may be a part): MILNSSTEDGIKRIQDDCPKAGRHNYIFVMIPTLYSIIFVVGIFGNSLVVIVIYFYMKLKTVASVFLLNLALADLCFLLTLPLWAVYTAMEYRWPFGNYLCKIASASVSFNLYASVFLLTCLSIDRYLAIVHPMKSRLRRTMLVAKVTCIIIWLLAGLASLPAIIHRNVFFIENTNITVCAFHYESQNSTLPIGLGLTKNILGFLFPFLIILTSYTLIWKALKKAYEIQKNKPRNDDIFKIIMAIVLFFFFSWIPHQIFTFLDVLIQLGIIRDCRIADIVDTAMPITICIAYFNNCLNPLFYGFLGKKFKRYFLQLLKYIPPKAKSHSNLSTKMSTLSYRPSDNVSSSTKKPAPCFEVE
Chain of Glucose-6-phosphate 1-dehydrogenase (P11413 whole entry): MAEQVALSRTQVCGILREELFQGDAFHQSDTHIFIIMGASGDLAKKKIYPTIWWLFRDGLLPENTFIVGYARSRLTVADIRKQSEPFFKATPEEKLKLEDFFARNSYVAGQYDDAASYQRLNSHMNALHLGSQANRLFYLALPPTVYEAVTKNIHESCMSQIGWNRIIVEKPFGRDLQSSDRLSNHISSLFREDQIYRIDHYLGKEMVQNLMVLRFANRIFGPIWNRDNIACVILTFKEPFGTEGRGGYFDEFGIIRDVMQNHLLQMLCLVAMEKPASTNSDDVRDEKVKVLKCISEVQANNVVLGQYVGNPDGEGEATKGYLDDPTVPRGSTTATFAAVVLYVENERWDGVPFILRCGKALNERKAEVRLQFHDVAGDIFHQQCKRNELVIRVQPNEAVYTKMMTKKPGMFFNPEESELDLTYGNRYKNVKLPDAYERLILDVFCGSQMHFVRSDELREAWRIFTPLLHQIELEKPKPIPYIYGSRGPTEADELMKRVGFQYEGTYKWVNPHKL
Chain of DNA dC->dU-editing enzyme APOBEC-3G (Q9HC16 whole entry): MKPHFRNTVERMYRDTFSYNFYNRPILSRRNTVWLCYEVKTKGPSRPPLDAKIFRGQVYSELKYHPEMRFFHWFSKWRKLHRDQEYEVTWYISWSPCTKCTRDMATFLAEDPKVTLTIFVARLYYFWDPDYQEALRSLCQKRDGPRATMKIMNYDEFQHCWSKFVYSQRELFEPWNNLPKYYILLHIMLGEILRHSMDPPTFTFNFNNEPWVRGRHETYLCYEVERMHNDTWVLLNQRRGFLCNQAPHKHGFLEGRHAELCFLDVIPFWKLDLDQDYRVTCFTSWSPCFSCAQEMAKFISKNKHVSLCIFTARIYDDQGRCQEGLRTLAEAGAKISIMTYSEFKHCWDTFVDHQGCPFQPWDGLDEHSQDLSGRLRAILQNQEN
Chain of DNA damage-inducible transcript 3 protein (P35639 whole entry): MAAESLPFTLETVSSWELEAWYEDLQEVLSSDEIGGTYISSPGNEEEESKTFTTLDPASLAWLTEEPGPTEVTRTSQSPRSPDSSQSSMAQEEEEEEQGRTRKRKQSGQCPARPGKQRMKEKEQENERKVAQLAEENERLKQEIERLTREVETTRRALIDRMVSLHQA
Chain of DNA dC->dU-editing enzyme APOBEC-3A (P31941 whole entry): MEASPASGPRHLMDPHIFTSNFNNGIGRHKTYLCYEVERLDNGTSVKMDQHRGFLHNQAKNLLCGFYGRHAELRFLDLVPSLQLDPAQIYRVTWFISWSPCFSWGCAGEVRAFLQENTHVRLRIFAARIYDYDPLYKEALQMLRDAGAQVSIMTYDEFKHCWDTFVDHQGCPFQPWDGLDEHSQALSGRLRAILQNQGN

With `Cc1ccc(C)c(-n2sc3ccc(F)cc3c2=O)c1`, the 50% inhibitory concentration (IC50) is 13.5 µM (active) in test [1]; 31.3 µM (active) on Phosphomannomutase 2; 11.3 µM (active) in test [2]; 7.43 µM (inactive) in test [3]; 34 µM (active) in test [4]; > 100 µM (inactive) in test [5]. Also, the IC50 in [7] is > 100 µM (inactive). In addition, the EC50 with T-cell was 3.62 µM (active). The CC50 in test [6] was 67.5 µM (active).
`COc1ccc(S(=O)(=O)NCc2ccc(C(=O)NCCN(C)Cc3ccccc3)cc2)cc1`: the IC50 in test [8] is > 32 µM (inactive); at Mu-type opioid receptor [10], > 32 µM (inactive); in test [11], > 10 µM (inactive); in test [12] it was 24 µM (inactive). Further, the EC50 (on Mu-type opioid receptor [9]; in test [13]; in test [14]) was > 32 µM (inactive) in each case.
As for `CCc1nnc(NC(=O)CSc2nc3cccnc3n2C2CCCCC2)s1`, the concentration giving a half-maximal response (EC50) was 23.2 µM (active) in test [15], 13.3 µM (active) in test [16], > 100 µM (inactive) in [17] and > 120 µM (not active) in test [18].
In the case of `Cc1n[nH]c(-c2ccc(O)c(C)c2O)c1Oc1ccccc1`, the IC50 is 11.7 µM (inactive) on Cannabinoid receptor 1 [19]; 0.854 µM (active) in [20]; > 32 µM (inactive) in test [21]; > 32 µM (inactive) at Cannabinoid receptor 2 [24]; 1.9 µM (active) in [26]. Besides, the EC50 (on Cannabinoid receptor 2 [22]; on Cannabinoid receptor 1 [23]; in [25]) was > 32 µM (inactive) throughout.
`Oc1ccccc1-n1c(-c2ccccc2)ccc1-c1ccccc1`: the AC50 in [27] is 4.28 µM (active). In addition, the “Absolute IC50 (XBP1)” value at X-box-binding protein 1 is 10 µM. In test [28], the “Absolute IC50 (CHOP)” value came to 10 µM.
